{"source": "paper PMC6328375", "about": "(Molecular pharmaceutics, 2017)", "key": {"[1]": {"target": "T1, OCT1 (Homo sapiens, UniProt O15245)", "T1 sequence (O15245 1-554)": "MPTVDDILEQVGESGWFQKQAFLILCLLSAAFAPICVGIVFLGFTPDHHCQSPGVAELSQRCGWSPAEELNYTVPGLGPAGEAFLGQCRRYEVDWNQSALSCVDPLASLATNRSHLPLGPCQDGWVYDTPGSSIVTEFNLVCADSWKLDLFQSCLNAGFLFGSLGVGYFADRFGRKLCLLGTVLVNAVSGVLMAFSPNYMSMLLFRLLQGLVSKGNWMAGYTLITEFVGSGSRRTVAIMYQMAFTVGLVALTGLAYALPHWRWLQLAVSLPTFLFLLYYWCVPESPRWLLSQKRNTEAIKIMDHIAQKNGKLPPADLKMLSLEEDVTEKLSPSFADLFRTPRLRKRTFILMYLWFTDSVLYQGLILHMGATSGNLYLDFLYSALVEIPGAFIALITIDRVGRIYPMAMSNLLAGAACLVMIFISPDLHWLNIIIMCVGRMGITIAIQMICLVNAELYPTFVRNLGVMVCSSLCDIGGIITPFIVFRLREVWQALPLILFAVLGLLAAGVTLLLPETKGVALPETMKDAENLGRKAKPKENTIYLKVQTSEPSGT", "test": "Uptake in HEK293 cells overexpressing OCT1", "assay_type": "in vitro ADME", "conditions": "for P, OCT1 / Vmax, OCT1 / P (non-saturable clearance parameter), OCT1 / Vmax (maximum uptake rate), OCT1 / Km: HEK293-OCT1, 0.1–1000 μM; for Vmax (maximum uptake rate), OCT1: estimate ± standard error (n = 6); for Km: read-out: Km (Michaelis-Menten constant), OCT1; for Time dependent uptake in HEK-OCT1 cells versus empty vector controls (HEK-P5): 5 μM MPP+ or 50 μM metformin, 1–30 min"}, "[2]": {"target": "T2, OCT2 (Homo sapiens, UniProt O15244)", "T2 sequence (O15244 1-555)": "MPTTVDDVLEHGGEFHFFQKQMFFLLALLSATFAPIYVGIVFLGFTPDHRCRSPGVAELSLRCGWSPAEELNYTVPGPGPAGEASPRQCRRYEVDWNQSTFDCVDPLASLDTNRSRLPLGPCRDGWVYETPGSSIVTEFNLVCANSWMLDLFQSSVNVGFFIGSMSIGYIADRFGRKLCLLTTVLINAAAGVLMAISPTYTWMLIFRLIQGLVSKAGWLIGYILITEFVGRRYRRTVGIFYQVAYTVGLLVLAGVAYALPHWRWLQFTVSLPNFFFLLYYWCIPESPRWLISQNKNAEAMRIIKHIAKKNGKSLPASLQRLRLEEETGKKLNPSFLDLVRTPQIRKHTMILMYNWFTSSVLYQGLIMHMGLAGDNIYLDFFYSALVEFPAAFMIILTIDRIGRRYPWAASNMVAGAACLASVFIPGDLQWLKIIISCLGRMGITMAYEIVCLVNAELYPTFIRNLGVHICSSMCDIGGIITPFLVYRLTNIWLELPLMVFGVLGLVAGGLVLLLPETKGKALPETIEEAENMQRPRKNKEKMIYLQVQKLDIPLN", "test": "Uptake in HEK293 cells overexpressing OCT2", "assay_type": "in vitro ADME", "conditions": "for P, OCT2 / Vmax, OCT2 / P (non-saturable clearance parameter), OCT2 / Vmax (maximum uptake rate), OCT2 / Km: HEK293-OCT2, 0.1–1000 μM; for Vmax (maximum uptake rate), OCT2: estimate ± standard error (n = 6); for Km: read-out: Km (Michaelis-Menten constant), OCT2; for Time dependent uptake in HEK-OCT2 cells versus empty vector controls (HEK-P5): 5 μM MPP+ or 50 μM metformin, 1–30 min"}, "[3]": {"target": "T1, OCT1", "test": "Inhibition of [14C]-metformin uptake in HEK293 cells expressing OCT1", "assay_type": "cell-based"}, "[4]": {"target": "T2, OCT2", "test": "Inhibition of [14C]-metformin uptake in HEK293 cells expressing OCT2", "assay_type": "cell-based", "conditions": "for inhibition at 50 μM: human, HEK293 cells expressing OCT2"}, "[5]": {"target": "T3, OCT3 (Homo sapiens, UniProt O75751)", "T3 sequence (O75751 1-556)": "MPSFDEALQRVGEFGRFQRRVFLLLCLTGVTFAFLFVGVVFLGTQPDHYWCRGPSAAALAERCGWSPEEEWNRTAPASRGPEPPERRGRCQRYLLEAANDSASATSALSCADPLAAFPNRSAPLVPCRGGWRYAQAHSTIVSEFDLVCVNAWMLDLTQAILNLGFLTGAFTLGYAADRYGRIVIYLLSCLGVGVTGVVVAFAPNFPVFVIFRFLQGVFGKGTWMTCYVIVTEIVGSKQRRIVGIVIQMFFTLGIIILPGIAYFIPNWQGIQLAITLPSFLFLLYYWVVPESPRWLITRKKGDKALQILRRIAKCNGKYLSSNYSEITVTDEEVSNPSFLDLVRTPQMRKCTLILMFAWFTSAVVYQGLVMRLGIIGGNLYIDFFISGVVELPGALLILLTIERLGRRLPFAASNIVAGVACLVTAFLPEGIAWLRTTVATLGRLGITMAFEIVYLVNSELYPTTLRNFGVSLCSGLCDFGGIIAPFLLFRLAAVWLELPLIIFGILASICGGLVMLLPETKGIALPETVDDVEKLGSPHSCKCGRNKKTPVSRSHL", "test": "Uptake in HEK293 cells stably overexpressing OCT3", "assay_type": "in vitro ADME", "conditions": "100 μM"}, "[6]": {"target": "T2, OCT2", "conditions": "50 μM compound, 5 μM MPP+, biguanide vs parent amine"}, "[7]": {"target": "T1, OCT1", "test": "Inhibition of [3H]-MPP+ uptake in HEK293 cells expressing OCT1", "assay_type": "cell-based", "conditions": "50 μM compound, 5 μM MPP+, biguanide vs parent amine"}, "[8]": {"conditions": "cited from earlier work"}, "[9]": {"conditions": "50 μM compound, 50 μM metformin"}}, "note": "Several values for one entry are separate records, joined by “and”; a condition that tells them apart may be missing. Equal entries are not always repeated. Structures can show the parent of a compound that is named as a salt."}
{"smiles": "Cl.N=C(N)NC(=N)NC1Cc2ccccc2C1", "note": "[2j, 2,3-Dihydro-1H-inden-2-yl-biguanide HCl]", "values": [{"measurement": "P, OCT1", "setting": "[1]", "value": 0.6, "unit": "fl/min/mg protein"}, {"measurement": "Vmax, OCT1", "setting": "[1]", "value": 0.3, "unit": "pmol/min/mg protein"}, {"measurement": "P (non-saturable clearance parameter), OCT1", "setting": "[1]; 10 min", "value": "6e-10 ± 8e-11", "unit": "µL/min/mg"}, {"measurement": "Vmax (maximum uptake rate), OCT1", "setting": "[1]; 10 min", "value": "0.3 ± 0.05", "unit": "pmol/mg/min"}, {"measurement": "Km", "setting": "[1]; 10 min", "value": "16.9 µM and 17 µM"}, {"measurement": "P, OCT2", "setting": "[2]", "value": 0.1, "unit": "fl/min/mg protein"}, {"measurement": "Vmax, OCT2", "setting": "[2]", "value": 1.1, "unit": "pmol/min/mg protein"}, {"measurement": "P (non-saturable clearance parameter), OCT2", "setting": "[2]; 10 min", "value": "1e-10 ± 5e-11", "unit": "µL/min/mg"}, {"measurement": "Vmax (maximum uptake rate), OCT2", "setting": "[2]; 10 min", "value": "1.1 ± 0.04", "unit": "pmol/mg/min"}, {"measurement": "Km", "setting": "[2]; 10 min", "value": "31.7 µM and 32 µM"}, {"measurement": "Inhibition of metformin transport in HEK-OCT1 cells", "setting": "[3]; [9]", "value": "≥ 50", "unit": "%"}, {"measurement": "Inhibition of metformin transport in HEK-OCT2 cells", "setting": "[4]; [9]", "value": "≥ 50", "unit": "%"}, {"measurement": "OCT3 substrate", "setting": "[5]", "value": "either none or very weak substrates"}, {"measurement": "Uptake fold ratio in OCT3 cells", "setting": "[5]; single concentration", "value": "significant increase"}]}
{"smiles": "N=C(N)NC(=N)NCCc1ccc(-c2ccccc2)cc1", "note": "[2g, 2-(4-Biphenyl)ethyl-biguanide]", "values": [{"measurement": "Change of inhibition of OCT2-mediated uptake of MPP+ upon addition of the biguanide moiety", "setting": "[6]", "value": "less inhibition"}]}
{"smiles": "[H]/N=C(/N)N/C(=N/[H])NCCc1ccccc1", "note": "[phenformin, reference compound]", "values": [{"measurement": "OCT1 substrate (fold uptake increase of 1.5 and greater over HEK-P5)", "setting": "[1]; 100 μM, 10 min, HEK-OCT1 vs empty vector", "value": "substrates"}, {"measurement": "OCT2 substrate (fold uptake increase of 1.5 and greater over HEK-P5)", "setting": "[2]; 100 μM, 10 min, HEK-OCT2 vs empty vector", "value": "substrates"}, {"measurement": "inhibition at 50 μM", "setting": "[4]", "value": "≥ 50", "unit": "%"}, {"measurement": "Change of inhibition of OCT1-mediated uptake of MPP+ upon addition of the biguanide moiety", "setting": "[7]", "value": "increased inhibition"}, {"measurement": "Change of inhibition of OCT2-mediated uptake of MPP+ upon addition of the biguanide moiety", "setting": "[6]", "value": "less inhibition"}]}
{"smiles": "CN(C)C(=N)N=C(N)N", "note": "[metformin, reference compound]", "values": [{"measurement": "Time dependent uptake in HEK-OCT1 cells versus empty vector controls (HEK-P5)", "setting": "[1]", "value": "higher"}, {"measurement": "Time dependent uptake in HEK-OCT2 cells versus empty vector controls (HEK-P5)", "setting": "[2]", "value": "higher"}]}
{"smiles": "C[n+]1ccc(-c2ccccc2)cc1", "note": "[MPP^+, 1-methyl-4-phenylpyridinium, reference compound]", "values": [{"measurement": "Time dependent uptake in HEK-OCT1 cells versus empty vector controls (HEK-P5)", "setting": "[1]", "value": "higher"}, {"measurement": "Time dependent uptake in HEK-OCT2 cells versus empty vector controls (HEK-P5)", "setting": "[2]", "value": "higher"}]}
{"smiles": "N=C(N)NC(=N)NCCOc1ccccc1", "note": "[2h, 1-(2-Phenoxyethyl)-biguanide]", "values": [{"measurement": "inhibition at 50 μM", "setting": "[4]", "value": "≥ 50", "unit": "%"}, {"measurement": "Change of inhibition of OCT1-mediated uptake of MPP+ upon addition of the biguanide moiety", "setting": "[7]", "value": "increased inhibition"}]}
{"smiles": "N=C(N)NC(=N)NCC(c1ccccc1)c1ccccc1", "note": "[2f, 2,2-Diphenylethyl-biguanide]", "values": [{"measurement": "P, OCT1", "setting": "[1]", "value": 1.7, "unit": "fl/min/mg protein"}, {"measurement": "Vmax, OCT1", "setting": "[1]", "value": 2.0, "unit": "pmol/min/mg protein"}, {"measurement": "P (non-saturable clearance parameter), OCT1", "setting": "[1]; 10 min", "value": "1.7e-09 ± 2e-10", "unit": "µL/min/mg"}, {"measurement": "Vmax (maximum uptake rate), OCT1", "setting": "[1]; 10 min", "value": "2.0 ± 0.1", "unit": "pmol/mg/min"}, {"measurement": "Km", "setting": "[1]; 10 min", "value": "14.2 µM and 14 µM"}, {"measurement": "P, OCT2", "setting": "[2]", "value": 0.6, "unit": "fl/min/mg protein"}, {"measurement": "Vmax, OCT2", "setting": "[2]", "value": 1.8, "unit": "pmol/min/mg protein"}, {"measurement": "P (non-saturable clearance parameter), OCT2", "setting": "[2]; 10 min", "value": "6e-10 ± 3e-10", "unit": "µL/min/mg"}, {"measurement": "Vmax (maximum uptake rate), OCT2", "setting": "[2]; 10 min", "value": "1.8 ± 0.2", "unit": "pmol/mg/min"}, {"measurement": "Km", "setting": "[2]; 10 min", "value": "12.4 µM and 12 µM"}, {"measurement": "OCT3 substrate", "setting": "[5]", "value": "either none or very weak substrates"}]}
{"smiles": "N=C(N)NC(=N)NCCCc1ccccc1", "note": "[2c, 1-(3-Phenylpropyl)-biguanide HCl]", "values": [{"measurement": "inhibition at 50 μM", "setting": "[3]; human, HEK293 cells expressing OCT1", "value": "≥ 50", "unit": "%"}]}
{"smiles": "N=C(NN)Nc1ccc(C(=O)O)cc1", "note": "[2m, p-(3-Aminoguanidino)-benzoic Acid]", "values": [{"measurement": "Inhibition of OCT1 mediated metformin uptake", "setting": "[3]; [9]", "value": "inhibited"}, {"measurement": "Inhibition of OCT2 mediated metformin uptake", "setting": "[4]; [9]", "value": "only inhibited OCT1"}]}
{"smiles": "CC(C)[C@H](N)C(=O)OCCOCn1cnc2c(=O)[nH]c(N)nc21", "note": "[valacyclovir]", "values": [{"measurement": "Oral bioavailability", "setting": "[8]", "value": 50, "unit": "%"}]}
